Results taken from paper PMC5218480 (PLoS ONE, 2017).

System: MV-4-11 cells
Experiment: Gene expression microarray analysis (Affymetrix PrimeView) and GSEA
Format: cell-based, human
Parameters: RFU PODN (11730768_x_at) / Fold change /veh PODN (11730768_x_at) / RFU LINC00158 (11744669_a_at) / Fold change /veh LINC00158 (11744669_a_at) / RFU DUSP10 (11751237_a_at) / Fold change /veh DUSP10 (11751237_a_at) / RFU ID3 (11757404_x_at) / Fold change /veh ID3 (11757404_x_at) / RFU PLEKHG5 (11737974_s_at) / Fold change /veh PLEKHG5 (11737974_s_at) / RFU LRRC4B (11730491_at) / Fold change /veh LRRC4B (11730491_at) / RFU GIMAP4 (11747438_a_at) / Fold change /veh GIMAP4 (11747438_a_at) / RFU KRT8 (11758183_x_at) / Fold change /veh KRT8 (11758183_x_at) / RFU CNN1 (11734310_a_at) / Fold change /veh CNN1 (11734310_a_at) / RFU VPS37D (11726825_at) / Fold change /veh VPS37D (11726825_at) / RFU C10orf10 (11716522_x_at) / Fold change /veh C10orf10 (11716522_x_at) / RFU KIR2DL2 /// KIR2DL4 /// KIR2DL5A /// KIR2DL5B /// KIR2DS1 /// KIR2DS2 /// KIR2DS3 /// KIR2DS4 /// KIR3DL3 /// KIR3DL3 /// KIR3DS1 (11738374_at) / Fold change /veh KIR2DL2 /// KIR2DL4 /// KIR2DL5A /// KIR2DL5B /// KIR2DS1 /// KIR2DS2 /// KIR2DS3 /// KIR2DS4 /// KIR3DL3 /// KIR3DL3 /// KIR3DS1 (11738374_at) / RFU C1QL1 (11718748_at) / Fold change /veh C1QL1 (11718748_at) / RFU TMPRSS4 (11747572_a_at) / Fold change /veh TMPRSS4 (11747572_a_at) / RFU HAMP (11756126_x_at) / Fold change /veh HAMP (11756126_x_at) / RFU RNFT2 (11725882_a_at) / Fold change /veh RNFT2 (11725882_a_at) / RFU NR4A2 (11747474_a_at) / Fold change /veh NR4A2 (11747474_a_at) / RFU ABCC12 (11746883_a_at) / Fold change /veh ABCC12 (11746883_a_at) / RFU TMEM136 (11760407_x_at) / Fold change /veh TMEM136 (11760407_x_at) / RFU CLDN22 /// WWC2 (11732394_at) / Fold change /veh CLDN22 /// WWC2 (11732394_at) / RFU HLA-DPB1 (11760878_x_at) / Fold change /veh HLA-DPB1 (11760878_x_at) / RFU SPINT1 (11716480_a_at) / Fold change /veh SPINT1 (11716480_a_at) / RFU GAP43 (11754022_s_at) / Fold change /veh GAP43 (11754022_s_at) / RFU A4GNT (11735810_at) / Fold change /veh A4GNT (11735810_at) / RFU PRB3 (11715151_x_at) / Fold change /veh PRB3 (11715151_x_at) / RFU TUBB4B (11761932_at) / Fold change /veh TUBB4B (11761932_at) / RFU CAPN14 (11732068_a_at) / Fold change /veh CAPN14 (11732068_a_at) / RFU TMCC2 (11721928_a_at) / Fold change /veh TMCC2 (11721928_a_at) / RFU IRGQ (11745062_a_at) / Fold change /veh IRGQ (11745062_a_at) / RFU FAM174B (11720279_a_at) / Fold change /veh FAM174B (11720279_a_at) / RFU TMPRSS4 (11748680_a_at) / Fold change /veh TMPRSS4 (11748680_a_at) / RFU FAM212B (11763350_a_at) / Fold change /veh FAM212B (11763350_a_at) / RFU PLEKHG5 (11743358_a_at) / Fold change /veh PLEKHG5 (11743358_a_at) / RFU ZSCAN30 (11745921_a_at) / Fold change /veh ZSCAN30 (11745921_a_at) / RFU CMKLR1 (11741424_a_at) / Fold change /veh CMKLR1 (11741424_a_at) / RFU LOC101060620 /// MAPK8IP1 (11723275_at) / Fold change /veh LOC101060620 /// MAPK8IP1 (11723275_at) / RFU SPTSSB (11747773_x_at) / Fold change /veh SPTSSB (11747773_x_at) / RFU PRSS12 (11739890_at) / Fold change /veh PRSS12 (11739890_at) / RFU BIN1 (11741810_x_at) / Fold change /veh BIN1 (11741810_x_at) / RFU WNT11 (11732464_a_at) / Fold change /veh WNT11 (11732464_a_at) / RFU C10orf10 (11716521_a_at) / Fold change /veh C10orf10 (11716521_a_at) / RFU C5orf56 (11738089_at) / Fold change /veh C5orf56 (11738089_at) / RFU CYB561 (11721691_x_at) / Fold change /veh CYB561 (11721691_x_at) / RFU ANKRD19P (11752326_a_at) / Fold change /veh ANKRD19P (11752326_a_at) / RFU OR2T12 /// OR2T33 /// OR2T8 (11738714_s_at) / Fold change /veh OR2T12 /// OR2T33 /// OR2T8 (11738714_s_at) / RFU VCAN (11748164_a_at) / Fold change /veh VCAN (11748164_a_at) / RFU JSRP1 (11732532_at) / Fold change /veh JSRP1 (11732532_at) / RFU KRTAP10-11 (11738290_x_at) / Fold change /veh KRTAP10-11 (11738290_x_at) / RFU MYO3A (11730013_a_at) / Fold change /veh MYO3A (11730013_a_at) / RFU EBF3 (11725865_a_at) / Fold change /veh EBF3 (11725865_a_at) / RFU CAMK2N1 (11719241_x_at) / Fold change /veh CAMK2N1 (11719241_x_at) / RFU C5orf56 (11738088_a_at) / Fold change /veh C5orf56 (11738088_a_at) / RFU OLFML3 (11715873_a_at) / Fold change /veh OLFML3 (11715873_a_at) / RFU LOC100653217 /// NTM (11731650_a_at) / Fold change /veh LOC100653217 /// NTM (11731650_a_at) / RFU MAPK11 (11762145_a_at) / Fold change /veh MAPK11 (11762145_a_at) / RFU FIZ1 (11724087_x_at) / Fold change /veh FIZ1 (11724087_x_at) / RFU OASL (11726364_x_at) / Fold change /veh OASL (11726364_x_at) / RFU SOX15 (11748057_x_at) / Fold change /veh SOX15 (11748057_x_at) / RFU CD79A (11719716_a_at) / Fold change /veh CD79A (11719716_a_at) / RFU HIST1H1D (11736915_at) / Fold change /veh HIST1H1D (11736915_at) / RFU CASKIN2 (11723855_a_at) / Fold change /veh CASKIN2 (11723855_a_at) / RFU LOC730098 (11760151_x_at) / Fold change /veh LOC730098 (11760151_x_at) / RFU OR4N2 (11742367_at) / Fold change /veh OR4N2 (11742367_at) / RFU PRRT2 (11749266_a_at) / Fold change /veh PRRT2 (11749266_a_at) / RFU SNX32 (11753110_a_at) / Fold change /veh SNX32 (11753110_a_at) / RFU CDHR5 (11726645_a_at) / Fold change /veh CDHR5 (11726645_a_at) / RFU RCAN1 (11760418_a_at) / Fold change /veh RCAN1 (11760418_a_at) / RFU FAM167A (11723789_a_at) / Fold change /veh FAM167A (11723789_a_at) / RFU FAM26E (11764081_at) / Fold change /veh FAM26E (11764081_at) / RFU ISYNA1 (11749810_s_at) / Fold change /veh ISYNA1 (11749810_s_at) / RFU ACY1 (11761880_at) / Fold change /veh ACY1 (11761880_at) / RFU 11764098_at / Fold change /veh 11764098_at / RFU SAMD14 (11745864_x_at) / Fold change /veh SAMD14 (11745864_x_at) / RFU NPB (11741838_a_at) / Fold change /veh NPB (11741838_a_at) / RFU TMPRSS6 (11731388_a_at) / Fold change /veh TMPRSS6 (11731388_a_at) / RFU KRTAP10-2 (11738614_at) / Fold change /veh KRTAP10-2 (11738614_at) / RFU ARHGAP8 /// PRR5-ARHGAP8 (11727945_x_at) / Fold change /veh ARHGAP8 /// PRR5-ARHGAP8 (11727945_x_at) / RFU KRTAP5-7 /// NADSYN1 (11734609_at) / Fold change /veh KRTAP5-7 /// NADSYN1 (11734609_at) / RFU RASL12 (11751679_a_at) / Fold change /veh RASL12 (11751679_a_at) / RFU CDKN2B (11736163_a_at) / Fold change /veh CDKN2B (11736163_a_at) / RFU PRF1 (11729649_at) / Fold change /veh PRF1 (11729649_at) / RFU, ZNF638 /// ZNF638-IT1 / Fold change vs veh, ZNF638 /// ZNF638-IT1 / RFU, PANK3 / Fold change vs veh, PANK3 / RFU, SH3YL1 / Fold change vs veh, SH3YL1 / RFU, ZEB2 / Fold change vs veh, ZEB2 / RFU, NRIP1 / Fold change vs veh, NRIP1 / RFU, PTTG1IP / Fold change vs veh, PTTG1IP / RFU, CAPN2 / Fold change vs veh, CAPN2 / RFU, MED14 / Fold change vs veh, MED14 / RFU, SNORA58 / Fold change vs veh, SNORA58 / RFU, C1orf63 / Fold change vs veh, C1orf63 / RFU, LRRFIP1 / Fold change vs veh, LRRFIP1 / RFU, NDUFAF7 / Fold change vs veh, NDUFAF7 / RFU, SLC12A2 / Fold change vs veh, SLC12A2 / RFU, IBTK / Fold change vs veh, IBTK / RFU, ESF1 / Fold change vs veh, ESF1 / Fold change vs veh, TMEM50B / RFU, TAOK1 / Fold change vs veh, TAOK1 / RFU, ACBD3 / Fold change vs veh, ACBD3 / RFU, TMA16 / Fold change vs veh, TMA16 / RFU, RWDD3 / Fold change vs veh, RWDD3 / RFU, BCAT1 / Fold change vs veh, BCAT1 / RFU, EDEM3 / Fold change vs veh, EDEM3 / RFU, TMEM33 / Fold change vs veh, TMEM33 / RFU, WDR75 / Fold change vs veh, WDR75 / RFU, AHCTF1 / Fold change vs veh, AHCTF1 / RFU, TFRC / Fold change vs veh, TFRC / RFU, ZDHHC17 / Fold change vs veh, ZDHHC17 / RFU, NOM1 / Fold change vs veh, NOM1 / RFU, ARL8B / Fold change vs veh, ARL8B / RFU, ZBTB11 / Fold change vs veh, ZBTB11 / RFU, TAMM41 / Fold change vs veh, TAMM41 / RFU, KIAA1704 /// LOC100996395 / Fold change vs veh, KIAA1704 /// LOC100996395 / RFU, ING1 / Fold change vs veh, ING1 / RFU, TRMT61B / Fold change vs veh, TRMT61B / RFU, FUBP3 / Fold change vs veh, FUBP3 / RFU, TP53 / Fold change vs veh, TP53 / RFU, TNKS2 / Fold change vs veh, TNKS2 / RFU, ZFP14 / Fold change vs veh, ZFP14 / RFU, ACTR2 / Fold change vs veh, ACTR2 / RFU, PPP3R1 / Fold change vs veh, PPP3R1 / RFU, PIK3R1 / Fold change vs veh, PIK3R1 / RFU, HNRNPA1 / Fold change vs veh, HNRNPA1 / RFU, RNF170 / Fold change vs veh, RNF170 / RFU, ZNF28 / Fold change vs veh, ZNF28 / RFU, RNGTT / Fold change vs veh, RNGTT / RFU, OGT / Fold change vs veh, OGT / RFU, BRD1 / Fold change vs veh, BRD1 / RFU, MARS / Fold change vs veh, MARS / RFU, ZNF655 / Fold change vs veh, ZNF655 / RFU, FAHD1 / Fold change vs veh, FAHD1 / RFU, BDP1 / Fold change vs veh, BDP1 / RFU, LRRCC1 / Fold change vs veh, LRRCC1 / RFU, ARID1A / Fold change vs veh, ARID1A / RFU, ZNF146 / Fold change vs veh, ZNF146 / RFU, ZNF330 / Fold change vs veh, ZNF330 / RFU, GPN3 / Fold change vs veh, GPN3 / RFU, C9orf123 / Fold change vs veh, C9orf123 / RFU, N4BP2L2 / Fold change vs veh, N4BP2L2 / RFU, ARFIP1 / Fold change vs veh, ARFIP1 / RFU, FAM179B / Fold change vs veh, FAM179B / RFU, BCL10 / Fold change vs veh, BCL10 / RFU, UHRF1BP1L / Fold change vs veh, UHRF1BP1L / RFU, BET1 / Fold change vs veh, BET1 / RFU, CNOT2 / Fold change vs veh, CNOT2 / RFU, ZNF268 / Fold change vs veh, ZNF268 / Fold change vs veh, ZNF507 / RFU, DGCR2 / Fold change vs veh, DGCR2 / RFU, WDSUB1 / Fold change vs veh, WDSUB1 / Fold change vs veh, HSP90B1 /// MIR3652 / RFU, ADSS / Fold change vs veh, ADSS / RFU, GK / Fold change vs veh, GK / RFU, ZNF148 / Fold change vs veh, ZNF148 / RFU, TAF9 / Fold change vs veh, TAF9 / RFU, SLC1A5 / Fold change vs veh, SLC1A5 / RFU, SLMO2 / Fold change vs veh, SLMO2 / RFU, ABCC4 / Fold change vs veh, ABCC4 / RFU, LOC101060439 /// RAP1B / Fold change vs veh, LOC101060439 /// RAP1B / RFU, RFX7 / Fold change vs veh, RFX7 / RFU, GTPBP10 / Fold change vs veh, GTPBP10 / RFU, CNEP1R1 / Fold change vs veh, CNEP1R1 / RFU, BIVM-ERCC5 /// ERCC5 / Fold change vs veh, BIVM-ERCC5 /// ERCC5 / RFU, ILF3 / Fold change vs veh, ILF3 / RFU 11762660_at / Fold change /veh 11762660_at / RFU VCAN (11757783_s_at) / Fold change /veh VCAN (11757783_s_at) / RFU DDX43 (11728927_at) / Fold change /veh DDX43 (11728927_at) / RFU KRT8 (11758188_x_at) / Fold change /veh KRT8 (11758188_x_at) / RFU NKD1 (11759106_at) / Fold change /veh NKD1 (11759106_at) / RFU SRD5A1 (11742802_a_at) / Fold change /veh SRD5A1 (11742802_a_at) / RFU TPSAB1 /// TPSB2 (11721975_s_at) / Fold change /veh TPSAB1 /// TPSB2 (11721975_s_at) / RFU GSTM3 (11746129_a_at) / Fold change /veh GSTM3 (11746129_a_at) / RFU IL23R (11737362_x_at) / Fold change /veh IL23R (11737362_x_at) / RFU TMEM51 (11727254_a_at) / Fold change /veh TMEM51 (11727254_a_at) / RFU PIWIL2 (11732686_x_at) / Fold change /veh PIWIL2 (11732686_x_at) / RFU ORM1 (11744905_x_at) / Fold change /veh ORM1 (11744905_x_at) / RFU CCDC152 (11743942_at) / Fold change /veh CCDC152 (11743942_at) / RFU ECM1 (11717891_a_at) / Fold change /veh ECM1 (11717891_a_at) / RFU IL23R (11748794_a_at) / Fold change /veh IL23R (11748794_a_at) / RFU TNFAIP8L3 (11732012_x_at) / Fold change /veh TNFAIP8L3 (11732012_x_at) / RFU MBOAT4 (11741988_at) / Fold change /veh MBOAT4 (11741988_at) / RFU 11764193_at / Fold change /veh 11764193_at / RFU TMEM53 (11763286_at) / Fold change /veh TMEM53 (11763286_at) / RFU MAGEB2 (11727129_at) / Fold change /veh MAGEB2 (11727129_at) / RFU TMEM200A (11744735_a_at) / Fold change /veh TMEM200A (11744735_a_at) / RFU CCDC152 (11751479_a_at) / Fold change /veh CCDC152 (11751479_a_at) / RFU FAM211A (11726209_a_at) / Fold change /veh FAM211A (11726209_a_at) / RFU RGS16 (11746705_a_at) / Fold change /veh RGS16 (11746705_a_at) / RFU VCAN (11755009_s_at) / Fold change /veh VCAN (11755009_s_at) / RFU RHOB (11743442_s_at) / Fold change /veh RHOB (11743442_s_at) / RFU RGS16 (11720943_a_at) / Fold change /veh RGS16 (11720943_a_at) / RFU RGS16 (11720944_at) / Fold change /veh RGS16 (11720944_at) / RFU, VPS4B / Fold change vs veh, VPS4B / RFU, CREB1 / Fold change vs veh, CREB1 / RFU, DNAJC13 / Fold change vs veh, DNAJC13 / RFU, GNAQ / Fold change vs veh, GNAQ / RFU, CDK5R1 / Fold change vs veh, CDK5R1 / RFU, ZRANB3 / Fold change vs veh, ZRANB3 / RFU, CUL4A / Fold change vs veh, CUL4A / RFU, CCNY / Fold change vs veh, CCNY / RFU, UFL1 / Fold change vs veh, UFL1 / RFU, COG3 / Fold change vs veh, COG3 / RFU, DIAPH2 / Fold change vs veh, DIAPH2 / RFU, SKA2 / Fold change vs veh, SKA2 / RFU, AFF3 / Fold change vs veh, AFF3 / RFU, LMF1 / Fold change vs veh, LMF1 / RFU, IPO11 / Fold change vs veh, IPO11 / RFU, DFFB / Fold change vs veh, DFFB / RFU, FOXP1 / Fold change vs veh, FOXP1 / RFU, CARD8 / Fold change vs veh, CARD8 / RFU, STRN3 / Fold change vs veh, STRN3 / RFU, ADK / Fold change vs veh, ADK / RFU, RASSF2 / Fold change vs veh, RASSF2 / RFU, WIPF1 / Fold change vs veh, WIPF1 / RFU, LARP1B / Fold change vs veh, LARP1B / RFU, RASA1 / Fold change vs veh, RASA1 / RFU, RB1 / Fold change vs veh, RB1 / RFU, PPFIA1 / Fold change vs veh, PPFIA1 / RFU, MAT2A / Fold change vs veh, MAT2A / RFU, CCT5 / Fold change vs veh, CCT5 / RFU, WDR92 / Fold change vs veh, WDR92 / RFU, CUX1 / Fold change vs veh, CUX1 / RFU, TTC7A / Fold change vs veh, TTC7A / RFU, TMEM135 / Fold change vs veh, TMEM135 / RFU, DEPTOR / Fold change vs veh, DEPTOR / RFU, CPM / Fold change vs veh, CPM / RFU, DNAJB6 / Fold change vs veh, DNAJB6 / RFU, CACNA2D3 / Fold change vs veh, CACNA2D3 / RFU, DTX4 / Fold change vs veh, DTX4 / RFU, TFCP2 / Fold change vs veh, TFCP2 / RFU, GMCL1 /// GMCL1P1 / Fold change vs veh, GMCL1 /// GMCL1P1 / RFU, AEBP2 / Fold change vs veh, AEBP2 / RFU, SNHG1 /// SNORD22 /// SNORD25 /// SNORD26 /// SNORD27 /// SNORD28 /// SNORD29 /// SNORD31 / Fold change vs veh, SNHG1 /// SNORD22 /// SNORD25 /// SNORD26 /// SNORD27 /// SNORD28 /// SNORD29 /// SNORD31 / Fold change (Aza/veh), C12orf56 (ProbeSet 11735607_a_at) / Fold change (ACY-1035/veh), C12orf56 (ProbeSet 11735607_a_at) / Fold change (Aza/veh), FGFR1OP (ProbeSet 11751329_s_at) / Fold change (ACY-1035/veh), FGFR1OP (ProbeSet 11751329_s_at) / Fold change (Aza/veh), VPS36 (ProbeSet 11739960_a_at) / Fold change (ACY-1035/veh), VPS36 (ProbeSet 11739960_a_at) / RFU SYPL1 (11715823_x_at) / Fold change /veh SYPL1 (11715823_x_at) / RFU IGFBP7 (11715501_s_at) / Fold change /veh IGFBP7 (11715501_s_at) / RFU REEP3 (11722064_at) / Fold change /veh REEP3 (11722064_at) / RFU IGLL1 (11728026_x_at) / Fold change /veh IGLL1 (11728026_x_at): dose or concentration left out as unconfirmed
Settings: ProbeSet 11717702_a_at; LIST D

Q: With `Nc1ccc(-c2cccs2)cc1NC(=O)c1ccc2c(c1)cc(C1CC1)n2CCN1CCOCC1` [ACY-1035] as the compound, how does the “Fold change vs veh, RB1” value read?
A: 0.96
